The text below walks through data of PubChem BioAssay AID1996.

In brackets after ≈: the same amount, converted by molar mass.

For the series the following is noted: buffer; pH 7.4; 200.0 µM.
Take `COc1ccccc1-n1cc(-c2ccccc2)c2c(=S)nc[nH]c21`: the kinetic solubility turned out to be 10.6 µg/mL (≈ 31.8 µM).
Turning to `COCCCNc1nc2nonc2nc1N1CCN2CCCC2C1` (stereo unspecified), the solubility (kinetic) was above 50 µg/mL.
Regarding `CC1CCCCN1CC(=O)c1c[nH]c2ccccc12` (stereo unspecified), the solubility (kinetic) was above 38.5 µg/mL.
`O=C(NCc1ccccc1)C12CC3CC(CC(Br)(C3)C1)C2` yielded a solubility (kinetic) of 6.6 µg/mL (≈ 19 µM).
Then `Cc1nc(NCc2cccnc2)c2c3c(sc2n1)CC(C)CC3` (stereo unspecified), with 2.5 µg/mL (≈ 7.71 µM); and `COc1ccc(NC(=O)COC(C)=O)cc1OC`, with above 38 µg/mL.
Then `COC(=O)Cn1c2ccc(OC)cc2c2nc(C)sc21`, with above 43.6 µg/mL; and `COc1cc(CO)ccc1OCc1ccc(Cl)nc1`, with above 42 µg/mL.
Under `Cc1nc(NC(=O)CSc2nc(N)cc(N)n2)sc1C` stands above 46.6 µg/mL; under `COc1ccc2ccccc2c1C1NC(=O)NC(C)=C1[N+](=O)[O-]` (stereo unspecified), 2.1 µg/mL (≈ 6.7 µM); under `Nc1nc(NCCO)nc(NC2CCCCC2)c1[N+](=O)[O-]`, 39.1 µg/mL (≈ 132 µM).
On to `CCOc1ncccc1C(=O)OCC(=O)NCc1cccs1`, for which the solubility (kinetic) is above 48.1 µg/mL.
Then `O=C(NCCN1CCOCC1)NC1(C(F)(F)F)Oc2ccc(Cl)cc2O1` (stereo unspecified), with above 59.4 µg/mL.
Under `O=C(NCCCn1ccnc1)Nc1ccc2c(c1)OCO2` stands above 43.2 µg/mL.
Then `CC(OC(=O)c1cn(C)c2ccccc12)C(=O)N1CCCC1` (stereo unspecified), with above 45.1 µg/mL; and `COC(=O)c1ccc(SCc2ccccc2)nc1`, with 3.1 µg/mL (≈ 12 µM).
In the case of `CN(CC(=O)NCCc1ccc(F)cc1)Cc1ccccc1`, the kinetic solubility was found to be 38.7 µg/mL (≈ 129 µM).
Then `COc1ccc(NC(=O)CCC(=O)c2ccc(C(C)C)cc2)cc1`, with below 0.7 µg/mL; and `COCCCn1c(=O)c2sccc2n(Cc2ccccc2)c1=O`, with 49.4 µg/mL (≈ 150 µM).
`N/C(CS(=O)(=O)c1ccccn1)=N\OC(=O)c1ccccc1Cl`: the kinetic solubility was found to be 46.5 µg/mL (≈ 131 µM).
Compound `CCN(c1ccccc1)S(=O)(=O)c1cc(NC(=O)CN2CCN(C)CC2)ccc1Cl.O=C(O)C(=O)O` registered a kinetic solubility above 81.2 µg/mL.
The compound `COCCNc1nc2c(c(=O)n(Cc3ccccc3F)c(=O)n2C)n1C` had a solubility (kinetic) of 8.5 µg/mL (≈ 23.5 µM).
Under `CCOC(=O)c1c(C)nsc1NCc1ccccc1` stands 8.5 µg/mL (≈ 30.8 µM).
Under `O=[N+]([O-])c1cccc(CN2CCN(c3ncccn3)CC2)c1` stands 32.2 µg/mL (≈ 108 µM); under `CC(=O)c1cn(CC(=O)NCCc2c[nH]c3ccccc23)c2ccccc12`, 2.6 µg/mL (≈ 7.23 µM); under `Cc1cc(C)c(C)c(S(=O)(=O)N2CCN(C(=O)c3cc(S(=O)(=O)N4CCOCC4)ccc3F)CC2)c1C`, 12.7 µg/mL (≈ 22.9 µM).
Then `CCCc1cc(C(=O)Nc2cc(Cl)ccc2O)no1`, with 0.6 µg/mL (≈ 2.14 µM); and `Cc1ccsc1C(=O)OC(C)C(=O)Nc1ccc(Cl)cn1` (stereo unspecified), with 28.6 µg/mL (≈ 88.1 µM); and `COc1ccc(S(=O)(=O)N2CCCCC2)cc1NC(=O)c1[nH]c(C)c(C(C)=O)c1C`, with 3.2 µg/mL (≈ 7.38 µM).
Regarding `Cc1ccc(C)c(S(=O)(=O)NCCC(=O)N2CCCC(C(N)=O)C2)c1` (stereo unspecified), the solubility (kinetic) is above 55.1 µg/mL.
Under `Cc1csc(SCC(=O)Nc2cc(C(N)=O)cc(C(N)=O)c2)n1` stands 51.6 µg/mL (≈ 147 µM).
For `Cc1cccc(-c2noc(CCC(=O)NC3CCCCC3)n2)c1`, the solubility (kinetic) is 3.4 µg/mL (≈ 10.8 µM).
`Cc1ccc(NC(=O)C(=O)NCCc2c[nH]c3ccccc23)cc1C` had a kinetic solubility below 0.2 µg/mL.
Then `CC(C)(C)NC(=O)/C=C/c1cccs1`, with above 31.4 µg/mL; and `CC(C)C(=O)Nc1ccc2c(c1)Cc1cc(NC(=O)C(C)C)ccc1-2`, with below 0.4 µg/mL; and `COc1ccc(CNC(=O)CN2C(=O)c3ccccc3C2=O)cc1`, with 4.4 µg/mL (≈ 13.6 µM).
The compound `O=[N+]([O-])c1ccc(CNc2cccc(F)c2)s1` displayed a solubility (kinetic) of 17.6 µg/mL (≈ 69.8 µM).
Under `CC(=O)O.NCC(c1ccco1)c1c[nH]c2ccccc12` (stereo unspecified) stands 21.5 µg/mL; under `COc1cccc(C2CCCN2Cc2nc(-c3cnccn3)no2)c1` (stereo unspecified), 44.9 µg/mL (≈ 133 µM); under `Cc1cc(NS(C)(=O)=O)c(=O)n(Cc2cccc(F)c2)c1`, above 46.6 µg/mL.
Under `Cc1ccc(S(=O)(=O)N2CCC3(CC2)OCCO3)s1` stands above 45.5 µg/mL; under `COc1ccc2oc(-c3ccccc3)c(C(=O)N(C)C)c2c1`, above 44.3 µg/mL; under `Cc1ccc(C2(C)NC(=O)N(CC(=O)Nc3ccc4c(c3)CCC4)C2=O)cc1` (stereo unspecified), 3.5 µg/mL (≈ 9.27 µM).
The compound `Cc1ccc(-c2nc3ncccc3n2O)cc1` gave a kinetic solubility above 33.8 µg/mL.
`Cc1cccc(OCC(=O)Nc2ccc3oc(=O)ccc3c2)c1` came in with a kinetic solubility of 3.3 µg/mL (≈ 10.7 µM).
Under `CCOC(=O)/C(=C/c1cn(C)c2ccccc12)NC(=O)c1ccccc1` stands 3.2 µg/mL (≈ 9.18 µM).
Under `Cc1cccc(OCCCC(=O)N2CCCCCC2)c1C` stands 26.9 µg/mL (≈ 92.9 µM).
Under `Cc1ccc(-n2c(C)cc(C(=O)OCC(=O)N3CCOCC3)c2C)cc1` stands above 53.5 µg/mL.
The compound `Cc1cc(OCC(=O)N2CCC(C(=O)O)CC2)c2c(C)cc(=O)oc2c1` showed a kinetic solubility above 53.9 µg/mL.
Under `CCOC(=O)C1CCN(CC(=O)c2c(C)n(C)c3ccc(OC)cc23)CC1` stands above 55.9 µg/mL; under `Nc1nccc(-c2ccc(-n3cccc3)cc2)n1`, below 0.1 µg/mL.

As a reminder, the kinetic solubility is the concentration staying in solution when a stock, usually in DMSO, is diluted into the medium.
